According to US12686674B2, “Crystal form of compound represented by formula I, and preparation therefor and application thereof” (Shanghai Zhimeng Biopharma, Inc., priority 2021, dated 2026):

Key:
[1] = Key water activity research, crystal form A and hydrate crystal form E; assay type: physicochemical; conditions: room temperature
AMES experiments = assay type: cell-based
[2] = Suspension competition of anhydrous crystal forms A/G; assay type: physicochemical
Protocol: In order to study the stability relationship between other anhydrous crystal forms (crystal forms A/G), suspension competition experiments were conducted at room temperature and 60° C. using ACN and EtOAc as solvents.

[3] = Room temperature storage of crystal form F (XRPD); assay type: physicochemical; conditions: room temperature (18-20° C./45~75% RH), about 3 days

## O=C1CO[C@H](c2cn(-c3ccc(Br)cc3)nc2-c2ccc(F)cc2)N1CCc1ccc2[nH]c(=O)[nH]c2c1
[1]; Water activity(Aw) 0, Acetone/H2O 1000:0 v/v
  The crystal form obtained (key water activity): Crystal form A
[1]; Water activity(Aw) 0.2, Acetone/H2O 984:16 v/v
  The crystal form obtained (key water activity): Crystal form A
[1]; Water activity(Aw) 0.4, Acetone/H2O 948:52 v/v
  The crystal form obtained (key water activity): Crystal form A
[1]; Water activity(Aw) 0.6, Acetone/H2O 857:143 v/v
  The crystal form obtained (key water activity): Crystal form A
[1]; Water activity(Aw) 0.8, Acetone/H2O 604:396 v/v
  The crystal form obtained (key water activity): Crystal form A
[1]; Water activity(Aw) 1.0, Acetone/H2O 0:1000 v/v
  The crystal form obtained (key water activity): Crystal form E

## Nc1ccc(CCN2C(=O)COC2c2cn(-c3ccc(Br)cc3)nc2-c2ccc(F)cc2)cc1N (centres unmarked) [2-(1-(4-bromophenyl)-3-(4-fluorophenyl)-1H-pyrazole-4-yl)-3-(3,4-diaminophenethyl) oxazolidin-4-one]
AMES experiments
  AMES experiments: positive

## CC(=O)Nc1ccc(CCN2C(=O)COC2c2cn(-c3ccc(Br)cc3)nc2-c2ccc(F)cc2)cc1[N+](=O)[O-] (centres unmarked) [3-(4-acetylamino-3-nitrophenylethyl)-2-(3-(4-fluorophenyl)-1-(4-bromophenyl)-1H-pyrazole-4-yl) oxazolidin-4-one]
AMES experiments
  AMES experiments: positive

## Nc1ccc(CCN2C(=O)COC2c2cn(-c3ccc(Br)cc3)nc2-c2ccc(F)cc2)cc1[N+](=O)[O-] (centres unmarked) [3-(4-amino-3-nitrophenylethyl)-2-(1-(4-bromophenyl)-3-(4-fluorophenyl)-1H-pyrazole-4-yl) oxazolidin-4-one]
AMES experiments
  AMES experiments: positive

## O=C1CO[C@H](c2cn(-c3ccc(Br)cc3)nc2-c2ccc(F)cc2)N1CCc1ccc2[nH]c(=O)[nH]c2c1 [Crystal form A/G]
[2]; ACN, 60° C., test D220-PS-14-A3
  The crystal form obtained (suspension competition): Crystal form A
[2]; ACN, Room temperature(~18° C.), test D220-PS-14-A1
  The crystal form obtained (suspension competition): Crystal form A
[2]; EtOAc, 60° C., test D220-PS-14-A4
  The crystal form obtained (suspension competition): Crystal form A
[2]; EtOAc, Room temperature(~18° C.), test D220-PS-14-A2
  The crystal form obtained (suspension competition): Crystal form A

## O=C1CO[C@H](c2cn(-c3ccc(Br)cc3)nc2-c2ccc(F)cc2)N1CCc1ccc2[nH]c(=O)[nH]c2c1 [Crystal form F]
[3]
  crystal form after being placed at room temperature: transformed into crystal form E
